According to the supplement of paper PMC10307832:

Experiments:
Experiment in all cases: relative viability (nuclei count vs DMSO), 5 days (fraction); higher = more cells survive
Mirin + Olaparib = compound: N=C1NC(=O)/C(=C/c2ccc(O)cc2)S1 [Mirin] + O=C(c1cc(Cc2n[nH]c(=O)c3ccccc23)ccc1F)N1CCN(C(=O)C2CC2)CC1 [Olaparib] (partner 8 µM)
How it was run: (§1)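 Five library-drug doses in √10 steps were combined with a fixed anchor-drug dose, or a single drug was given alone, by pin tool to lung cancer cell lines in 1536-well plates the day after seeding. Nuclei were stained and counted after 5 days. Relative viability is the nuclei count in treated wells over that in vehicle wells, taken as the median of duplicate plates.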

[1] = compound: CCC1=CN=CN=C1N2CCN(CC2)CC3=NC4=C(N3)C=C(C=C4)C(F)(F)F + O=C(CCCCCCC(=O)Nc1ccccc1)NO [Vorinostat] (partner 1 µM)
How it was run: as §1

Mirin + Tozasertib = compound: N=C1NC(=O)/C(=C/c2ccc(O)cc2)S1 [Mirin] + Cc1cc(Nc2cc(N3CCN(C)CC3)nc(Sc3ccc(NC(=O)C4CC4)cc3)n2)n[nH]1 [Tozasertib] (partner 0.1 µM)
How it was run: as §1

[2] = compound: CCC1=CN=CN=C1N2CCN(CC2)CC3=NC4=C(N3)C=C(C=C4)C(F)(F)F + Nc1nc2[nH]cc(CCc3ccc(C(=O)N[C@@H](CCC(=O)O)C(=O)O)cc3)c2c(=O)[nH]1 [Pemetrexed] (partner 0.2 µM)
How it was run: as §1

Cell Line	relative viability (Mirin + Olaparib; first compound 0.25 µM)	relative viability (Mirin + Olaparib; first compound 0.7906 µM)	relative viability (Mirin + Olaparib; first compound 2.5 µM)	relative viability (Mirin + Olaparib; first compound 7.906 µM)	relative viability (Mirin + Olaparib; first compound 25 µM)	relative viability ([1]; first compound 0.04 µM)	relative viability ([1]; first compound 0.1265 µM)	relative viability ([1]; first compound 0.4 µM)	relative viability ([1]; first compound 1.265 µM)	relative viability ([1]; first compound 4 µM)	relative viability (Mirin + Tozasertib; first compound 0.25 µM)	relative viability (Mirin + Tozasertib; first compound 0.7906 µM)	relative viability (Mirin + Tozasertib; first compound 2.5 µM)	relative viability (Mirin + Tozasertib; first compound 7.906 µM)	relative viability (Mirin + Tozasertib; first compound 25 µM)	relative viability ([2]; first compound 0.04 µM)	relative viability ([2]; first compound 0.1265 µM)	relative viability ([2]; first compound 0.4 µM)	relative viability ([2]; first compound 1.265 µM)	relative viability ([2]; first compound 4 µM)
NCI-H838	0.788	0.811	0.829	0.749	0.529	0.785	0.695	0.821	0.66	0.662	0.265	0.303	0.213	0.23	0.203	0.248	0.239	0.247	0.244	0.225
LCLC-97TM1	0.386	0.413	0.486	0.244	0.166	0.607	0.685	0.642	0.711	0.751	0.191	0.151	0.19	0.138	0.122	0.161	0.152	0.153	0.194	0.173
BEN	0.958	0.987	1.21	0.962	0.638	0.556	0.566	0.565	0.457	0.464	0.438	0.584	0.523	0.553	0.456	0.605	0.651	0.667	0.551	0.676
NCI-H2023	0.496	0.506	0.454	0.459	0.416	0.561	0.575	0.649	0.556	0.776	0.343	0.354	0.38	0.27	0.188	0.452	0.25	0.204	0.239	0.232
LC-2-ad	0.743	0.757	0.706	0.784	0.733	0.737	0.652	0.636	0.687	0.682	0.459	0.35	0.476	0.342	0.256	0.272	0.266	0.283	0.289	0.292
NCI-H650	0.365	0.433	0.352	0.307	0.366	0.414	0.455	0.448	0.363	0.477	0.684	0.557	0.707	–	0.51	0.806	0.866	0.99	0.837	0.973
NCI-H1755	0.851	0.914	0.866	0.833	0.93	0.741	0.699	0.641	0.514	0.827	0.682	0.587	0.655	0.462	0.606	0.425	0.453	0.754	0.411	0.454
EPLC-272H	0.867	0.682	0.812	0.661	0.228	0.311	0.598	0.373	0.392	0.351	0.267	–	0.262	0.127	0.15	0.308	0.33	0.276	0.318	0.281
NCI-H1437	0.637	0.641	0.607	0.625	0.549	0.915	0.748	0.745	0.64	0.5	0.451	0.407	0.372	0.343	0.377	0.296	0.295	0.306	0.35	0.224
EKVX	0.857	0.916	0.839	0.758	0.993	0.767	0.678	0.739	0.575	0.659	0.397	0.323	0.368	0.322	0.345	0.425	0.395	0.399	0.404	0.384
NCI-H1651	0.182	0.208	0.182	0.167	0.199	0.615	0.56	0.542	0.506	0.584	0.667	0.788	0.622	0.489	0.587	0.616	0.627	0.684	0.59	0.728
HCC-15	0.718	0.675	0.73	0.536	0.502	0.864	0.831	0.789	0.76	0.82	0.336	0.344	0.359	0.202	0.177	0.217	0.204	0.224	0.236	0.218
LCLC-103H	0.703	0.892	0.758	0.847	0.89	0.797	0.685	0.746	0.668	0.717	0.417	0.554	0.481	0.461	0.336	0.399	0.449	0.462	0.446	0.467
NCI-H2347	0.639	0.639	0.602	0.612	0.588	0.61	0.673	0.649	0.321	0.516	0.58	0.457	0.681	0.587	0.439	0.422	0.408	0.434	0.373	0.442
NCI-H647	0.567	0.617	0.617	0.479	0.164	0.453	0.591	0.414	0.364	0.543	0.23	0.224	0.185	0.165	0.165	0.165	0.173	0.166	0.159	0.135
NCI-H520	0.311	0.336	0.307	0.349	0.187	0.854	0.684	0.663	0.576	0.591	0.407	0.5	0.469	0.47	0.352	0.667	0.719	0.762	0.576	0.602
HCC-366	0.377	0.376	0.346	0.426	0.335	0.365	0.3	0.296	0.332	0.417	0.15	–	0.602	0.0813	0.103	0.174	0.22	0.156	0.137	0.15

Cell Line	relative viability (Mirin + Olaparib; first compound 0.25 µM)	relative viability (Mirin + Olaparib; first compound 0.7906 µM)	relative viability (Mirin + Olaparib; first compound 2.5 µM)	relative viability (Mirin + Olaparib; first compound 7.906 µM)	relative viability (Mirin + Olaparib; first compound 25 µM)	relative viability ([1]; first compound 0.04 µM)	relative viability ([1]; first compound 0.1265 µM)	relative viability ([1]; first compound 0.4 µM)	relative viability ([1]; first compound 1.265 µM)	relative viability ([1]; first compound 4 µM)	relative viability (Mirin + Tozasertib; first compound 0.25 µM)	relative viability (Mirin + Tozasertib; first compound 0.7906 µM)	relative viability (Mirin + Tozasertib; first compound 2.5 µM)	relative viability (Mirin + Tozasertib; first compound 7.906 µM)	relative viability (Mirin + Tozasertib; first compound 25 µM)	relative viability ([2]; first compound 0.04 µM)	relative viability ([2]; first compound 0.1265 µM)	relative viability ([2]; first compound 0.4 µM)	relative viability ([2]; first compound 1.265 µM)	relative viability ([2]; first compound 4 µM)
NCI-H2085	0.773	0.752	0.773	0.949	0.808	0.728	0.709	0.697	0.763	0.766	0.8	0.826	0.678	0.749	0.546	0.818	0.789	0.84	0.772	0.845
NCI-H522	0.583	0.665	0.624	0.719	0.508	0.951	1.02	0.75	0.771	0.973	0.491	0.538	0.582	0.517	0.472	0.855	1.2	0.892	0.876	0.958
PC-3 [JPC-3]	1.14	1.23	1.19	1.21	1.23	–	0.737	0.738	0.701	0.885	0.905	0.978	0.893	0.879	0.899	–	0.983	1.07	0.959	1.09
HOP-62	0.548	0.409	0.219	0.381	0.519	0.604	0.56	0.462	0.429	0.606	0.367	0.381	0.357	0.257	0.324	0.283	0.293	0.326	0.275	0.283
NCI-H2126	0.929	0.925	0.951	0.947	0.959	0.794	0.781	0.766	0.595	0.742	0.85	0.834	0.92	0.832	0.474	0.75	0.695	0.725	0.657	0.709
NCI-H2087	0.602	0.559	0.611	0.671	0.498	0.929	0.881	0.707	0.659	0.638	0.26	0.248	0.292	0.22	0.19	0.634	0.732	0.72	0.632	0.55
NCI-H1793	0.649	–	0.958	0.873	0.703	0.568	0.668	0.531	0.536	0.647	0.341	–	0.619	0.283	0.178	0.862	0.786	0.613	0.52	0.82
RERF-LC-KJ	1.03	1.12	0.941	0.972	0.875	0.638	0.717	0.715	0.634	0.704	0.488	0.524	0.467	0.424	0.385	0.393	0.455	0.459	0.441	0.476
H3255	0.55	0.539	0.541	0.537	0.547	0.946	0.576	0.929	0.762	0.754	0.677	0.639	0.698	0.555	0.602	0.59	0.552	0.59	0.568	0.575
EMC-BAC-2	0.505	0.508	0.48	0.382	0.429	–	0.415	0.422	0.386	0.484	0.274	0.28	0.284	0.228	0.162	0.436	0.43	0.455	0.418	0.469
SW 900	0.842	0.959	0.848	0.913	0.767	0.454	0.45	0.403	–	0.422	0.652	0.698	0.571	0.689	0.473	0.439	0.464	0.495	–	0.458
CAL-12T	0.733	0.821	0.668	0.658	0.531	0.664	0.8	0.623	0.782	0.568	0.282	–	0.317	0.283	0.222	1.3	1.18	1.19	1.24	1.18
NCI-H661	0.713	0.759	0.712	0.707	0.655	0.78	0.794	0.757	0.704	0.663	0.351	0.367	0.344	0.337	0.327	0.908	0.973	0.941	0.921	0.921
SK-MES-1	0.721	0.877	0.682	0.583	0.455	1.11	1.04	1.01	1.03	1.08	0.95	1.14	0.87	0.936	0.665	1.03	1.01	1	0.993	1.03
NCI-H1355	0.681	0.747	0.692	0.755	0.745	0.643	0.575	0.584	0.585	0.644	0.526	0.637	0.533	0.394	0.272	1.07	0.928	0.996	0.996	1.08
PC-14	0.25	0.34	0.313	0.308	0.271	0.764	0.756	0.688	0.691	0.657	0.587	0.581	0.589	0.599	0.566	0.135	0.153	0.141	0.13	0.135
